According to patent US5254677A, “β-galactosidase substrates for cedia” (Boehringer Mannheim GmbH, priority 1990, dated 1993):

Tests used:
[1] = tested on: β-galactosidase formed from EA22 enzyme acceptor and ED4-thyroxine T4 conjugate; conditions: prior art substrate of U.S. Pat. No. 4,708,929; cited from earlier work
[2] = tested on: β-galactosidase formed from EA22 enzyme acceptor and ED4-thyroxine T4 conjugate; test: T4/CEDIA test (thyroxine T4 as hapten, monoclonal antibodies against T4), gradient of the calibration curve; assay type: biochemical; conditions: Hitachi 704, 37° C., substrate 1 mg./ml., 376 or 415 nm, percentage of 2-nitrophenyl-β-galactoside (=100%)
Procedure: 3. Evaluation in the T4/CEDIA (CEDIA with thyroxine T4 as hapten and monoclonal antibodies against thyroxine T4).
The criterion for the evaluation of the individual substrates was the gradient of the calibration curve.
I) Carrying out of the T4/CEDIA test
Definitions: EA=enzyme acceptor; ED=enzyme donor; EA22 =cloned enzyme acceptor for CEDIA; ED4 =cloned enzyme donor for CEDIA. […] The amino acid sequences of these polypeptides are there disclosed.
ΔE/min. was measured in the interval of 9-10 minutes.
Calibration curves were produced for all substrates. Of these curves, the gradients were compared. [formula]
Gradient expressed as percentage value of the 2-nitrophenyl-β-galactoside (=100%) for T4/CEDIA.

[3] = molecular target: T1, β-galactosidase (Escherichia coli, UniProt P00722); test: Enzyme activity: extinction change per minute with identical amounts of β-galactosidase (sensitivity and enzymatic cleavage rate of substrates); assay type: biochemical; conditions: measured at the absorption maximum of the particular chromogen (405/376/384/408 nm), 0.05M potassium phosphate buffer pH 7.0
T1 construct: not the CEDIA donor/acceptor fragments
Procedure: 2. Sensitivity comparison of the substrates and of their enzymatic cleavage rate.
The extinction change per minute (mE/min.) in the region of the absorption maximum (see Table 1) of the particular chromogen was determined with the use of identical amounts of the enzyme β-galactosidase: for the precise conditions see Example 4, II a) and b).
1) 0.05M potassium phosphate buffer, pH 7.0
2) 10 mmole/liter magnesium chloride solution
3) 69.8% (v/v) mercaptoethanol solution
4) p-galactosidase (Boehringer Mannheim GmbH, order No. 105 031)
5) substrate, 5.9 mg./ml. in solution a)
Pre-incubation: the following substances were pipetted into plastic cuvettes: […]
After mixing, the reaction was initiated: […]
Δ/min. was calculated from the linear range.

[4] = Absorption maxima of the chromogen and associated extinction coefficients; assay type: physicochemical; conditions: 0.1 mole/l. potassium phosphate buffer (pH 7.0); for ε (extinction coefficient): at the absorption maximum of the chromogen
Text: 1. Wavelengths of the absorption maxima of the chromogen and the associated extinction coefficients (ε).
Measurement in 0.1 mole/l. potassium phosphate buffer (pH 7.0) at the absorption maximum of the chromogen.

T1 sequence (P00722 2-1024): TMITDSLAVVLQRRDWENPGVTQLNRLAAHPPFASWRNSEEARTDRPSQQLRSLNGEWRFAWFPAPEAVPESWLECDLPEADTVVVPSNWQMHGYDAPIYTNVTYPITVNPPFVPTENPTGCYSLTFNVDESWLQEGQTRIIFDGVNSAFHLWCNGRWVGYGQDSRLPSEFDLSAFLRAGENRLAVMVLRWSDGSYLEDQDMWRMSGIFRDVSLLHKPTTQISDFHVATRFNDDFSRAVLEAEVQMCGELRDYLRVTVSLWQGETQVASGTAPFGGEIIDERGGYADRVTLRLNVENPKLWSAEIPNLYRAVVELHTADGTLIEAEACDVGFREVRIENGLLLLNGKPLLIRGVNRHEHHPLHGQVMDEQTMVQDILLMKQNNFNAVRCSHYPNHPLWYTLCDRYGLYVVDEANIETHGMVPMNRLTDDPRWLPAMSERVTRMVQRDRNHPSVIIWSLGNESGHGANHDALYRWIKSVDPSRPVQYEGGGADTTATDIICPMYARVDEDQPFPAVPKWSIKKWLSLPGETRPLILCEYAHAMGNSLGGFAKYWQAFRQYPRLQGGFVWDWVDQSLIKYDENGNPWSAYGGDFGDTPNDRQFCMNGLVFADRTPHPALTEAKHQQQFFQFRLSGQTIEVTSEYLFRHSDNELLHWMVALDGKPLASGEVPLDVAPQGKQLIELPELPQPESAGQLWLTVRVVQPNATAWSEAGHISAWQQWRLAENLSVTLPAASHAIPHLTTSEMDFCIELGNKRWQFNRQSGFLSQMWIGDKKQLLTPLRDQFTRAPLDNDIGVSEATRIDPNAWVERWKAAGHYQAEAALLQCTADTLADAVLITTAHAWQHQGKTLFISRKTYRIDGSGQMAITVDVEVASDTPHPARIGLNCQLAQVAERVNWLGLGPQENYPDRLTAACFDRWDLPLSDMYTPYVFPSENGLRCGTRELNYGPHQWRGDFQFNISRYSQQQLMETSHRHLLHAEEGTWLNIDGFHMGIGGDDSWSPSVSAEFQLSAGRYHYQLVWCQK

Row | Structure (SMILES) | sensitivity as chromogenic enzyme substrate for CEDIA [1] | relative gradient of the calibration curve [2] | extinction change per minute [3] | lambda max [4] | ε (extinction coefficient) [4]
1 | O=[N+]([O-])c1ccccc1O[C@@H]1O[C@H](CO)[C@H](O)[C@H](O)[C@H]1O [oNPG, 2-nitrophenyl-β-D-galactopyranoside, reference compound] | low sensitivity | 100% | 0.024 mE/min. |  | 
2 | O=[N+]([O-])c1ccc(O)c(C(F)(F)F)c1 [2-CF3-4-nitrophenol, 2-Trifluoromethyl-4-nitrophenol] |  |  |  | 384 nm | 18800 L/mol/cm
3 | O=[N+]([O-])c1ccc(O[C@@H]2O[C@H](CO)[C@H](O)[C@H](O)[C@H]2O)c(Cl)c1 [Example 2-Cl-4-NPG, 2-chloro-4-nitrophenyl-β-D-galactopyranoside, reference compound] |  | 494% | 0.085 mE/min. |  | 
4 | N#Cc1cc([N+](=O)[O-])ccc1O[C@@H]1O[C@H](CO)[C@H](O)[C@H](O)[C@H]1O [Example 2-CN-4-NPG, 2-cyano-4-nitrophenyl-β-D-galactopyranoside] |  | 561% | 0.150 mE/min. |  | 
5 | N#Cc1cc([N+](=O)[O-])ccc1O [2-CN-4-nitrophenol, 2-Hydroxy-5-nitrobenzonitrile] |  |  |  | 376 nm | 15700 L/mol/cm
6 | O=[N+]([O-])c1ccc(O)c(Cl)c1 [2-Cl-4-nitrophenol] |  |  |  | 405 nm | 16600 L/mol/cm
7 | O=[N+]([O-])c1ccccc1O [2-nitrophenol] |  |  |  | 408 nm | 2040 L/mol/cm
8 | O=[N+]([O-])c1ccc(O[C@@H]2O[C@H](CO)[C@H](O)[C@H](O)[C@H]2O)c(C(F)(F)F)c1 [Example 2-CF3-4-NPG, 2-trifluoromethyl-4-nitrophenyl-β-D-galactopyranoside] |  | 528% | 0.109 mE/min. |  | 
